Experimental data as given in patent US20030165458A1, “Diagnosis, prevention, amelioration and/or treatment of disturbed immune function induced by disturbed lipid metabolism” (priority 2000, published 2003).

How the values were obtained:
[1] = test system: Complement Lipid Pathway (CliP); experiment: MBL in-vitro assay: MBL-dependent complement activation in human serum, hemolysis of heterologous chicken erythrocytes; format: biochemical; details: results summarized in FIG. 9
Method: Experimental procedure: Chylomicrons were isolated from human serum by ultra centrifugation and purified by column chromatography. The purified chylomicron fractions were added to MBL-positive serum (from healthy human subjects) and MBL-negative serum (from MBL-deficient human subjects) and purified heterologous chicken erythrocytes were added. Complement activation was allowed to occur at 37° C. for 45 min. after which, the extend of hemolysis was evaluated by spectrophotometrical determination of hemoglobin levels in serum supernatants.
Using the MBL in-vitro assay, we identified, as an example, the components from olive oil and soy oil inducing Complement Lipid Pathway (CliP)-activation.

[2] = Standardized oral fat load with and without vitamin A in healthy volunteers; format: in vivo, human
Method: Experimental procedure: Fasting venous blood was drawn and Sudan Black staining as described in example 2 was carried out (left panel of FIG. 7). In the right panel of FIG. 7, venous blood of the same healthy volunteer was drawn 4 hours after administration of a standardized oral fat load. In the oral RP-fat loading test, cream is used as fat source; this is a 40% (w/v) fat emulsion with a P/S ratio of 0.06, which contains 0.001% (w/v) cholesterol and 2.8% (w/v) carbohydrates. After an overnight fast of 12 h, the subjects ingest the fresh cream, to which 120.000 U of aqueous RP (Retinyl palmitate =vitamin A) had been added 18 h before the test, in a dose of 50 g per m^2 body surface. After the ingestion of the fat load, subjects were only allowed to drink water or tea during the following 24 h. Peripheral blood samples were obtained in sodium EDTA (2 mg/ml) before (T=0), at hourly intervals up to 10 h and at 12 and 24 h after the meal. Tubes were protected against light by aluminum foil and centrifuged immediately for 15 min at 800×g at 4° C. […]
Experimental procedure: Standardized oral fat loading tests (oral RP fat loading test) were performed in volunteers and patients and plasma C3 levels were determined nephelometrically at regular intervals. Complement component 3 was measured by nephelometry (Dade Behring Nephelometry type II). […]

CCCCCCCCCCCCCCCC(=O)OC/C=C(C)/C=C/C=C(C)/C=C/C1=C(C)CCCC1(C)C [vitamin A, Retinyl palmitate]
CLiP-induction [1]: strong CLiP-induction | postprandial plasma C3 increase ([2]; 20 healthy volunteers, oral fat load with vs without vitamin A, after 2 h (FIG. 11A)): significantly higher | plasma triglyceride increase 2 h after acute oral fat load ([2]; healthy volunteers, fat load with vs without vitamin A (FIG. 11B)): reduction
